The text below walks through data of ChEMBL document CHEMBL5291721, “A preclinical secondary pharmacology resource illuminates target-adverse drug reaction associations of marketed drugs” (Nat Commun, 2023).

Experiment [1] concerns the target Beta-2 adrenergic receptor (Homo sapiens, UniProt P07550). Format: functional, cell-based.
For experiment [2], the target named is T1, cGMP-inhibited 3',5'-cyclic phosphodiesterase 3A (Homo sapiens, UniProt Q14432). Format: functional.
For experiment [3], the target named is 5-hydroxytryptamine receptor 2A (Homo sapiens, UniProt P28223). Format: functional, cell-based.
5-hydroxytryptamine receptor 2A, sequence (P28223 whole entry): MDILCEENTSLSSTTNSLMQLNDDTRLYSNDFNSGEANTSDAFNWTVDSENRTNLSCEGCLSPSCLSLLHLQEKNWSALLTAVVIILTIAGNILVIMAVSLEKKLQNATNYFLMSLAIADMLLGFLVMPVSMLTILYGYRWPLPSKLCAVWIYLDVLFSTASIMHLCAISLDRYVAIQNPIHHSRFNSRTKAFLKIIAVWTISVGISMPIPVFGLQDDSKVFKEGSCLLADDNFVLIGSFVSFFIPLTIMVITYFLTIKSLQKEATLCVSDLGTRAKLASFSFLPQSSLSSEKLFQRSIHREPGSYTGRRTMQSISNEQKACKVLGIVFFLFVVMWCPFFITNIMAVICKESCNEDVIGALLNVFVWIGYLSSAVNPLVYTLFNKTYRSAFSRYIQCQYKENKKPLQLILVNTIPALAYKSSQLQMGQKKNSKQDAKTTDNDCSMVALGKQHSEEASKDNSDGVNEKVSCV
The target in experiment [4] is Glutamate receptor ionotropic, NMDA 1 (Rattus norvegicus, UniProt P35439).
Another experiment concerns the target T2, Endothelin-1 receptor (Homo sapiens, UniProt P25101).
T2 sequence (P25101 whole entry): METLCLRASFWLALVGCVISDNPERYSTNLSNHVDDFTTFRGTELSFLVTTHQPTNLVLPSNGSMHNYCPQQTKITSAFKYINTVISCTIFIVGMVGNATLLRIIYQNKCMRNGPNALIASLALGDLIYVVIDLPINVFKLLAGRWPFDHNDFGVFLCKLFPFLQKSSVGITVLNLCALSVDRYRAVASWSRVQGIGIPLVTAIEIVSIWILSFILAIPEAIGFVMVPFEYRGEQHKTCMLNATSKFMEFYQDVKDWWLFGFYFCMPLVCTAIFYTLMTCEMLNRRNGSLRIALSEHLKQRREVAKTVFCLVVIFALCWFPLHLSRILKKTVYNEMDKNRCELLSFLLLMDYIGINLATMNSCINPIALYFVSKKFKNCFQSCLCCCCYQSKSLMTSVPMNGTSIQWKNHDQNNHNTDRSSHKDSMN

Experiment [5] concerns the target T3, 5-hydroxytryptamine receptor 2C (Homo sapiens, UniProt P28335).
T3 sequence (P28335 whole entry): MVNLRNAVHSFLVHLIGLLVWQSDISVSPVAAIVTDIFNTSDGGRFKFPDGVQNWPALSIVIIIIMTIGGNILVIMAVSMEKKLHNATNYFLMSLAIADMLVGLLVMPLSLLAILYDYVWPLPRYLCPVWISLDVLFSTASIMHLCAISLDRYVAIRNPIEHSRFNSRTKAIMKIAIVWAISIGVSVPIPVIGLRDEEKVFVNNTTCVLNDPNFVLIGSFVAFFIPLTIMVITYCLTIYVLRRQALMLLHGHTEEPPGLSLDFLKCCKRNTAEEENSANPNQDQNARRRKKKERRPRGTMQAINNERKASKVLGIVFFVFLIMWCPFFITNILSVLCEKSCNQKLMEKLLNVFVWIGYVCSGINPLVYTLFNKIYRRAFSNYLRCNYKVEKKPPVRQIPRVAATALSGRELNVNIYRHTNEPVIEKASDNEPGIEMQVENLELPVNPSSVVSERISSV

Another experiment deals with D(1A) dopamine receptor (Homo sapiens, UniProt P21728). Format: functional, cell-based.
D(1A) dopamine receptor, sequence (P21728 whole entry): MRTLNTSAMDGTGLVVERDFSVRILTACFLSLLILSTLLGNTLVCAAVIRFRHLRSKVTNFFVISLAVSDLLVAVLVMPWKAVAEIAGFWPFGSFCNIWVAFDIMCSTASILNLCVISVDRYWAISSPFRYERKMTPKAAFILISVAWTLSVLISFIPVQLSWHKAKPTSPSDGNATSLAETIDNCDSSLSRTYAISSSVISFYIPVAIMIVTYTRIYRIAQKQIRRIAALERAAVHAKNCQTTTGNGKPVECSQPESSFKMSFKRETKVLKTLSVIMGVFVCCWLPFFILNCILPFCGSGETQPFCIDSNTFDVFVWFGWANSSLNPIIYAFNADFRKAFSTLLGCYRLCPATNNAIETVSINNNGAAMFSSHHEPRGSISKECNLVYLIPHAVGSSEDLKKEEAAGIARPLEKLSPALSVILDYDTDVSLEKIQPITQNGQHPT
Experiment [6] concerns the target T4, Equilibrative nucleoside transporter 1 (Homo sapiens, UniProt Q99808).
T4 sequence (Q99808 whole entry): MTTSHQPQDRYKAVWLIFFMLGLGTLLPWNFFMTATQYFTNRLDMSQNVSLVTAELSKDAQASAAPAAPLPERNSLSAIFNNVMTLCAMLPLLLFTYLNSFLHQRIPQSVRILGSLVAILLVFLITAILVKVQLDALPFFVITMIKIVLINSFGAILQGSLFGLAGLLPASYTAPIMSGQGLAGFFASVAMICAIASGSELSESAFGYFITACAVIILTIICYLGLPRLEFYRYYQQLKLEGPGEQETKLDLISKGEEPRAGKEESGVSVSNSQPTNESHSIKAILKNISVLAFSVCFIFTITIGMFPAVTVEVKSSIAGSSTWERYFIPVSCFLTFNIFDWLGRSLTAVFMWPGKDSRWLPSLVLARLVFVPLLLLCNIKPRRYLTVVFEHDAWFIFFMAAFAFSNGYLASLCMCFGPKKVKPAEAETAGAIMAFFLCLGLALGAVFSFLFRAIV

Experiment [7] has as its target T5, Prostaglandin G/H synthase 1 (Rattus norvegicus, UniProt Q63921).
T5 sequence (Q63921 whole entry): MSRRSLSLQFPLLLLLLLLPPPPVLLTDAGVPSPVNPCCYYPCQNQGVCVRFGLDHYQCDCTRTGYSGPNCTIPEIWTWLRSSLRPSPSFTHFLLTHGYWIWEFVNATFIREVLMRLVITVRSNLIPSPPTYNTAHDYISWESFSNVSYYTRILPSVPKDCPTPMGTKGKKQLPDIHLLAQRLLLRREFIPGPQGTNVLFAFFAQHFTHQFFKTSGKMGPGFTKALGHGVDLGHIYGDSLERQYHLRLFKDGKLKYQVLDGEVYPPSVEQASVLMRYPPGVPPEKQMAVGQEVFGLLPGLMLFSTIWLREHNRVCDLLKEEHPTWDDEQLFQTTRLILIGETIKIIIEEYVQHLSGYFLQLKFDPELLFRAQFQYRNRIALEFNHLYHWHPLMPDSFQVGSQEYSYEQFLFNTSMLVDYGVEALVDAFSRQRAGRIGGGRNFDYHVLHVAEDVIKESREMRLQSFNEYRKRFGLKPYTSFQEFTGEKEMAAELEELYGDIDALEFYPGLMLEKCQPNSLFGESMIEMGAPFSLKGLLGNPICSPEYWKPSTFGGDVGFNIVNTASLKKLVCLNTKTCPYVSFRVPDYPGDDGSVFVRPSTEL
Format: functional.

A further experiment concerns the target D(3) dopamine receptor (Homo sapiens, UniProt P35462).
In experiment [8] the target is 3',5'-cyclic-AMP phosphodiesterase 4A (Homo sapiens, UniProt P27815). It is filed as functional.
3',5'-cyclic-AMP phosphodiesterase 4A, sequence (P27815 whole entry): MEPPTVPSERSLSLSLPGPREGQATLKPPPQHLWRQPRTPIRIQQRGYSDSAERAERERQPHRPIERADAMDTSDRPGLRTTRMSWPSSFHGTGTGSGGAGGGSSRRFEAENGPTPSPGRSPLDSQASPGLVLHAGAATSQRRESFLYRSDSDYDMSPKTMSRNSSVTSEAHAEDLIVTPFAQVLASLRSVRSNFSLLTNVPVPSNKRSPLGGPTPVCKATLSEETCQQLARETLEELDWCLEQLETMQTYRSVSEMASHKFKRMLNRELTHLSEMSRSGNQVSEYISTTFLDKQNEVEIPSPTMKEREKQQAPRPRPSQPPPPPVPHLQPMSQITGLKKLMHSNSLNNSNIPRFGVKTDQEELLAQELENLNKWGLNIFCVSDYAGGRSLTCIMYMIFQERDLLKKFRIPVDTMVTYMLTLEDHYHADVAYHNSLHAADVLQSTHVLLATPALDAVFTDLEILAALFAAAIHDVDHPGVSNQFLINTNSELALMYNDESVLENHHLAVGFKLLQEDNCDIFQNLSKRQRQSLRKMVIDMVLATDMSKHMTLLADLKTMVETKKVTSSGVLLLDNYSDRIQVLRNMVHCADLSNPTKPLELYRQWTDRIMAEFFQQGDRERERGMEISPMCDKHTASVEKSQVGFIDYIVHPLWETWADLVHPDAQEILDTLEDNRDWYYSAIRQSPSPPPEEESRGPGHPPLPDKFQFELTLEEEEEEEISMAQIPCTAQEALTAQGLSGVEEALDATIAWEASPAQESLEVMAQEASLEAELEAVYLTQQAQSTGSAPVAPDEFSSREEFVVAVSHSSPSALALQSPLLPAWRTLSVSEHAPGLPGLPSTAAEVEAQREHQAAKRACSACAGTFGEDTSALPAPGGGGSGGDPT
Experiment [9] addresses T1, cGMP-inhibited 3',5'-cyclic phosphodiesterase 3A. It is filed as functional. This is another data set of the same source.
Experiment [10] concerns the target T6, Muscarinic acetylcholine receptor M1 (Homo sapiens, UniProt P11229).
T6 sequence (P11229 whole entry): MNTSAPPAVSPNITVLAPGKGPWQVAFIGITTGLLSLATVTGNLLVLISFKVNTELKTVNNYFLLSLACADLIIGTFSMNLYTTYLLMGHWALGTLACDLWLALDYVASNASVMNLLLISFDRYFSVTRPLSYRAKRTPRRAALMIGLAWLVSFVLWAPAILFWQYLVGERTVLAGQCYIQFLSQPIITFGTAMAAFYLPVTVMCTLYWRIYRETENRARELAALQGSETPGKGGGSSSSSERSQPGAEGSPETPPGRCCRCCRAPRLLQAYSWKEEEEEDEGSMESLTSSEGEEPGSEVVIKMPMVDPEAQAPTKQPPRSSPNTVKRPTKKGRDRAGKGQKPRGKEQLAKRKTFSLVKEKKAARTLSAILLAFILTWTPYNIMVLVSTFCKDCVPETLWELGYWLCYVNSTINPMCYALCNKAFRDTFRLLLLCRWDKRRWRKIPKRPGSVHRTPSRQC
It is filed as functional, cell-based.
Further: assay procedure not described here.

T1 sequence (Q14432 whole entry): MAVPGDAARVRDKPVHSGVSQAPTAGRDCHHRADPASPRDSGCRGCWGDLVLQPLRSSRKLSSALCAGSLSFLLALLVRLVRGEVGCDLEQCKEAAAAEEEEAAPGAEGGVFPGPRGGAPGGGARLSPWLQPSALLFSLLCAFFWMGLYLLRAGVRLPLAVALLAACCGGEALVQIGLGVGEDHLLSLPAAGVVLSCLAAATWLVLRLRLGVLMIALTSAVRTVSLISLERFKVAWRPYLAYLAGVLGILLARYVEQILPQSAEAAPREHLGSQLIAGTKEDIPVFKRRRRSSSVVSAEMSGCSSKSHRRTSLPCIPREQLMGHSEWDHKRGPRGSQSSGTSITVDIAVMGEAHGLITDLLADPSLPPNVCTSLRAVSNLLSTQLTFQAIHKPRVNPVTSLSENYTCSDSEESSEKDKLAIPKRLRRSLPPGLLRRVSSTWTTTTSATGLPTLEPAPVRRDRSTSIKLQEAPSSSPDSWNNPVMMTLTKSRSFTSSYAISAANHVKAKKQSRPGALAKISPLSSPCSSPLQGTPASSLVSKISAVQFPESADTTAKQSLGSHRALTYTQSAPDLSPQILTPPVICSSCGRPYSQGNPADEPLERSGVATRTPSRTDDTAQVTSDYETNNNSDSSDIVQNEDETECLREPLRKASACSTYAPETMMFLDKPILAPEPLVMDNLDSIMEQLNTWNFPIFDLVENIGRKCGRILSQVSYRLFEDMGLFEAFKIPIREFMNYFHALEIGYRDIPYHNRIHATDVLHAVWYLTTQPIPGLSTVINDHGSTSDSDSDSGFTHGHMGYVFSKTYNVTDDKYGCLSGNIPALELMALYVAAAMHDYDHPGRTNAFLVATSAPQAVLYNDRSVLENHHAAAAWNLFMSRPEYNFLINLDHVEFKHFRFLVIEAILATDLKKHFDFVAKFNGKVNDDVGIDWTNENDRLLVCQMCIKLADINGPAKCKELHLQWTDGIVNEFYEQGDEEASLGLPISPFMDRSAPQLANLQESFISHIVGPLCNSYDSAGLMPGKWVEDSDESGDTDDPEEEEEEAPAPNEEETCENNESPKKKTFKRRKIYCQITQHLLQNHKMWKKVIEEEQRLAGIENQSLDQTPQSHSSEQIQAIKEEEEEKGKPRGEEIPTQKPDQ
Beta-2 adrenergic receptor, sequence (P07550 whole entry): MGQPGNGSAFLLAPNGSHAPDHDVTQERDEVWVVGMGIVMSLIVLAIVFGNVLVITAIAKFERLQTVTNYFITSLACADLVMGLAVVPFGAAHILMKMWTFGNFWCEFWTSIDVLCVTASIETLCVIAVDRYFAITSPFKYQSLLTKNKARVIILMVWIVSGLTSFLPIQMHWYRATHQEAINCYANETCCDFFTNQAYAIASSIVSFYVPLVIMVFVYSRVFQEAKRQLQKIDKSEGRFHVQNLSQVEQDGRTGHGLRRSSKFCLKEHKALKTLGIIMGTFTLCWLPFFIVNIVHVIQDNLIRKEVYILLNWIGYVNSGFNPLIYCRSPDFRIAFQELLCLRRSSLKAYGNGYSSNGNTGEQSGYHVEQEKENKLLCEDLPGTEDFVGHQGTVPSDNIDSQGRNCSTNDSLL
D(3) dopamine receptor, sequence (P35462 whole entry): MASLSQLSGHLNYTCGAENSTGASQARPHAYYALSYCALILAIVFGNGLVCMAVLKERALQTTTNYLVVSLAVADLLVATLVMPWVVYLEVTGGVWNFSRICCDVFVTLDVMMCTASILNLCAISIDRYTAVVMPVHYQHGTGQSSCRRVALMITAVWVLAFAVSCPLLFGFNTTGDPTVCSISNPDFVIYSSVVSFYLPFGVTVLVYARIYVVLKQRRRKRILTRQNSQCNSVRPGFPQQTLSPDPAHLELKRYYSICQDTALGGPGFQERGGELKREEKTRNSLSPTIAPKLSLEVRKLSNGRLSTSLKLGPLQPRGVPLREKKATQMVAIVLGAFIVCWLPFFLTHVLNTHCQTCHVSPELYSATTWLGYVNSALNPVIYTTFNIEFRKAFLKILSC

Turning to `Cn1nnc2c(C(N)=O)ncn2c1=O` [TEMOZOLOMIDE], the AC50 was greater than 30 µM in experiment [1]; greater than 30 µM in experiment [2]; greater than 30 µM in experiment [3]; greater than 10 µM in experiment [4]; greater than 30 µM on Endothelin-1 receptor; greater than 30 µM in experiment [5]. The AC50 (on D(1A) dopamine receptor; in experiment [6]; in experiment [7]) was greater than 30 µM each time.

For `O=C(OCC(O)CO)c1ccccc1Nc1ccnc2cc(Cl)ccc12` (stereo not drawn) [GLAFENINE], the AC50 is greater than 30 µM at D(3) dopamine receptor; greater than 30 µM in experiment [1]; greater than 30 µM in [2]; 8.3 µM in experiment [8]; greater than 30 µM in experiment [3]; greater than 30 µM in [9]. For the same molecule, the AC50 at Endothelin-1 receptor was greater than 30 µM; in experiment [5], greater than 30 µM; at D(1A) dopamine receptor, greater than 30 µM; in experiment [6] it was 8.1 µM; in experiment [7], greater than 30 µM; in experiment [10] it was 7.51 µM.

`Nc1nc(NC2CC2)c2ncn([C@H]3C=C[C@@H](CO)C3)c2n1` [ABACAVIR]: the AC50 (in experiment [1]; in experiment [2]; in experiment [3]; in experiment [4]; at Endothelin-1 receptor; in experiment [5]) was greater than 30 µM each time. For the same molecule, the AC50 (on D(1A) dopamine receptor; in experiment [6]; in experiment [7]) was greater than 30 µM in each case.

On to `O=C(Cc1ccc(-c2ccccc2)cc1)Nc1ccccn1` [DIFENPIRAMIDE], for which the AC50 (on D(3) dopamine receptor; in experiment [1]; in experiment [2]; in experiment [8]; in [3]; in experiment [9]) was greater than 30 µM each time. Also, the AC50 is greater than 30 µM in experiment [4], greater than 30 µM in experiment [5], greater than 30 µM at D(1A) dopamine receptor and greater than 10 µM in experiment [10].

Consider `COCCCN1CCC(NC(=O)c2cc(Cl)c(N)c3c2OCC3)CC1` [PRUCALOPRIDE], for which the AC50 (on D(3) dopamine receptor; in experiment [1]; in [2]; in experiment [8]; in experiment [3]; in [9]) was greater than 30 µM each time. Also, the AC50 (on Endothelin-1 receptor; in experiment [5]; on D(1A) dopamine receptor; in experiment [6]; in [7]; in experiment [10]) was greater than 30 µM in each case.

As to `Cc1c(C(=O)NN2CCCCC2)nn(-c2ccc(Cl)cc2Cl)c1-c1ccc(Cl)cc1` [RIMONABANT], the AC50 in experiment [1] is greater than 30 µM; in [2] it was 8.4 µM; in experiment [3], greater than 30 µM; in experiment [4] it was greater than 10 µM; on Endothelin-1 receptor, greater than 30 µM; in [5], greater than 30 µM. Moreover, the AC50 was greater than 30 µM at D(1A) dopamine receptor, 20.1 µM in experiment [6] and greater than 30 µM in experiment [7].

For `c1cnc(N2CCN(Cc3ccc4c(c3)OCO4)CC2)nc1` [PIRIBEDIL], the AC50 (in experiment [1]; in [2]; in experiment [3]; on Endothelin-1 receptor; in experiment [5]; on D(1A) dopamine receptor) was greater than 30 µM each time. For the same molecule, the AC50 in experiment [6] and in experiment [7] was greater than 30 µM throughout.

On to `O=C1Nc2ccc(Cl)cc2[C@@](C#CC2CC2)(C(F)(F)F)O1` [EFAVIRENZ], for which the AC50 was greater than 30 µM in experiment [1]; 24 µM in experiment [2]; greater than 30 µM in experiment [3]; greater than 10 µM in experiment [4]; greater than 30 µM at Endothelin-1 receptor; 5.61 µM in [5]. Besides, the AC50 (at D(1A) dopamine receptor; in [6]; in experiment [7]) was greater than 30 µM in each case.

One may read the AC50 as the concentration giving half of the maximal activity seen. A low value points to greater potency.
